In this test the target is T1, human mAChR M4 (Homo sapiens, UniProt P08173).
T1 construct: expressed in transfected cells
T1 sequence (P08173 1-479): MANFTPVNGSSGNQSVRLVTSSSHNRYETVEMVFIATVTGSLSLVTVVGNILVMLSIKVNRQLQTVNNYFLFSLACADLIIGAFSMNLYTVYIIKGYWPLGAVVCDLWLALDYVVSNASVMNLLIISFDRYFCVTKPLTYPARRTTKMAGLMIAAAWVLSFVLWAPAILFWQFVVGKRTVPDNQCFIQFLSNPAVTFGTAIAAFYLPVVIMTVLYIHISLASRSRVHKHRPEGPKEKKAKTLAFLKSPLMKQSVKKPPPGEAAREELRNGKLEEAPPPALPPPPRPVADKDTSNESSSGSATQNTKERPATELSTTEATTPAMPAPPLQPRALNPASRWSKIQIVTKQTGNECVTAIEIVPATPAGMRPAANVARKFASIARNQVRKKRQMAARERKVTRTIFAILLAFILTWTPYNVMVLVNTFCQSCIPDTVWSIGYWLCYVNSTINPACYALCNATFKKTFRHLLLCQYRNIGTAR
Nature of the test: mAChR M4 cell-based functional assay (calcium mobilization, CHO-K1 hM4-Gqi5 cells). The conditions noted are these: for Emax at 30 µM: CHO-K1, % ACh maximum at 30 μM, human M4; for EC50: increase in the EC20 acetylcholine response, CHO-K1 hM4-Gqi5 cells; for Emax: CHO-K1. An outline of the steps:
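Fluorescent calcium read-out (Fluo-4 AM, FDSS, 1 Hz) in hM4-Gqi5 CHO-K1 cells, 11-point 1:3 compound series. Agonism scored on compound addition, PAM activity as increase of the 144 s EC20 acetylcholine response, antagonism as decrease of the 230 s EC80 response; four-parameter logistic fits give EC50 and Emax.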
In general terms: Calcium flux is commonly read through the fluorescence of an indicator in the cells.

Where [1] appears, read: positive allosteric modulator activity, read-out: Human M4 EC50.

Molecules are shown by their SMILES. Where two headings read alike, the source gives them in different places.

For the compound `Cc1nc(Cl)c(C)c(N2CCc3ncc(N4CCCn5nccc54)cc3C2)n1` [compound 243, 6-(6-chloro-2,5-dimethylpyrimidin-4-yl)-3-(6,7-dihydropyrazolo[1,5-a]pyrimidin-4(5H)-yl)-5,6,7,8-tetrahydro-1,6-naphthyridine], the Emax at 30 µM worked out at 102%. Also, the EC50 under setting [1] worked out at 25 nM.

On to `Cc1nc(C)c(C)c(N2CCc3ncc(N4CCCn5nccc54)cc3C2)n1` [compound 244, 3-(6,7-dihydropyrazolo[1,5-a]pyrimidin-4(5H)-yl)-6-(2,5,6-trimethylpyrimidin-4-yl)-5,6,7,8-tetrahydro-1,6-naphthyridine], for which the maximal response (Emax) at 30 µM was found to be 99%. Moreover, under setting [1], the 50% effective concentration (EC50) is 25 nM.

As for `Cc1nn(C)cc1-c1cnc2c(c1)CN(c1nc(C(F)(F)F)nc(Cl)c1C)CC2` [compound 245, 6-(6-chloro-5-methyl-2-(trifluoromethyl)pyrimidin-4-yl)-3-(1,3-dimethyl-1/-pyrazol-4-yl)-5,6,7,8-tetrahydro-1,6-naphthyridine], the maximal response (Emax) at 30 µM was determined as 56%. In addition, under setting [1], the EC50 came out at 641 nM.

As for `Cc1c(Cl)nc(C(F)(F)F)nc1N1CCc2ncc(-c3ccc(N(C)C)nc3)cc2C1` [compound 246, 5-(6-(6-chloro-5-methyl-2-(trifluoromethyl)pyrimidin-4-yl)-5,6,7,8-tetrahydro-1,6-naphthyridin-3-yl)-N,N-dimethylpyridin-2-amine], the Emax at 30 µM is 19%. For the same compound, the concentration for a half-maximal effect (EC50) under setting [1] was found to be 8390 nM.

Turning to `Cc1c(Cl)nc(C(F)(F)F)nc1N1CCc2ncc(Nc3ccnn3C)cc2C1` [compound 247, 6-(6-chloro-5-methyl-2-(trifluoromethyl)pyrimidin-4-yl)-N-(1-methyl-1H-pyrazol-5-yl)-5,6,7,8-tetrahydro-1,6-naphthyridin-3-amine], the maximum response (Emax) at 30 µM turned out to be 91%. For the same compound, under setting [1], the EC50 was 764 nM.

`Cc1c(Cl)nc(C(F)(F)F)nc1N1CCc2ncc(N3CCCn4nccc43)cc2C1` [compound 248, 6-(6-chloro-5-methyl-2-(trifluoromethyl)pyrimidin-4-yl)-3-(6,7-dihydropyrazolo[1,5-a]pyrimidin-4(5H)-yl)-5,6,7,8-tetrahydro-1,6-naphthyridine]: the Emax at 30 µM amounted to 88%. In addition, under setting [1], the EC50 was 300 nM.

On to `Cc1c(Cl)nc(C(F)(F)F)nc1N1CCc2ncc(Nc3cccnc3F)cc2C1` [compound 249, 6-(6-chloro-5-methyl-2-(trifluoromethyl)pyrimidin-4-yl)-N-(2-fluoropyridin-3-yl)-5,6,7,8-tetrahydro-1,6-naphthyridin-3-amine], for which the Emax at 30 µM came out at 82%. For the same compound, under setting [1], the EC50 came to 1440 nM.

Regarding `Cc1nc(Cl)c(C)c(N2Cc3cc(N4CCCn5nccc54)cnc3C(C)(C)C2)n1` [compound 250, 6-(6-chloro-2,5-dimethylpyrimidin-4-yl)-3-(6,7-dihydropyrazolo[1,5-a]pyrimidin-4(5H)-yl)-8,8-dimethyl-5,6,7,8-tetrahydro-1,6-naphthyridine], the Emax at 30 µM was found to be 66%. In addition, the half-maximal effective concentration (EC50) under setting [1] came out at 616 nM.

On to `Cc1nc(Cl)c(C)c(N2CCc3ncc(Nc4cccnc4F)cc3C2)n1` [compound 251, 6-(6-chloro-2,5-dimethylpyrimidin-4-yl)-N-(2-fluoropyridin-3-yl)-5,6,7,8-tetrahydro-1,6-naphthyridin-3-amine], for which the maximum response (Emax) at 30 µM is 93%. Under setting [1], the concentration for a half-maximal effect (EC50) was 197 nM.

For `Cc1nc(C(F)(F)F)nc(N2CCc3ncc(C(F)(F)F)cc3C2)c1C` [compound 252, 6-(5,6-dimethyl-2-(trifluoromethyl)pyrimidin-4-yl)-3-(trifluoromethyl)-5,6,7,8-tetrahydro-1,6-naphthyridine], the Emax at 30 µM worked out at 75%. Moreover, the EC50 under setting [1] turned out to be 1030 nM.

For the compound `Cc1nc(Cl)nc(N2CCc3ncc(C(F)(F)F)cc3C2)c1C` [compound 253, 6-(2-chloro-5,6-dimethylpyrimidin-4-yl)-3-(trifluoromethyl)-5,6,7,8-tetrahydro-1,6-naphthyridine], the maximum response (Emax) at 30 µM came to 94%. Besides, under setting [1], the 50% effective concentration (EC50) is 200 nM.

As for `Cc1nc(Cl)nc(N2CCc3ncc(C4CC4)cc3C2)c1C` [compound 254, 6-(2-chloro-5,6-dimethylpyrimidin-4-yl)-3-cyclopropyl-5,6,7,8-tetrahydro-1,6-naphthyridine], the Emax turned out to be 95%. In addition, the EC50 (Human M4 EC50, positive allosteric modulator activity) is 70 nM.

For `Cc1nc(Cl)c(C)c(N2Cc3cc(N)cnc3C(C)C2)n1` (stereo not drawn) [compound 255, 6-(6-chloro-2,5-dimethylpyrimidin-4-yl)-8-methyl-5,6,7,8-tetrahydro-1,6-naphthyridin-3-amine], the Emax turned out to be 88%. Besides, the concentration giving a half-maximal response (EC50) under setting [1] amounted to 2100 nM.

Turning to `Cc1nc(Cl)c(C)c(N2Cc3cc(C(F)(F)F)cnc3C(C)C2)n1` (stereo not drawn) [compound 256, 6-(6-chloro-2,5-dimethylpyrimidin-4-yl)-8-methyl-3-(trifluoromethyl)-5,6,7,8-tetrahydro-1,6-naphthyridine], the maximal effect (Emax) at 30 µM was 85%. Besides, under setting [1], the EC50 amounted to 663 nM.

`Cc1nc(Cl)c(C)c(N2Cc3cc(C(F)(F)F)cnc3C(C)(C)C2)n1` [compound 257, 6-(6-chloro-2,5-dimethylpyrimidin-4-yl)-8,8-dimethyl-3-(trifluoromethyl)-5,6,7,8-tetrahydro-1,6-naphthyridine]: the Emax at 30 µM worked out at 39%. Also, under setting [1], the 50% effective concentration (EC50) amounted to 8310 nM.

With `Cc1nc(C(F)(F)F)nc(N2CCc3ncc(N4CCCn5nccc54)cc3C2)c1C` [compound 258, 3-(6,7-dihydropyrazolo[1,5-a]pyrimidin-4(5H)-yl)-6-(5,6-dimethyl-2-(trifluoromethyl)pyrimidin-4-yl)-5,6,7,8-tetrahydro-1,6-naphthyridine], the Emax at 30 µM was found to be 79%. Also, under setting [1], the EC50 came to 69 nM.

As for `FC(F)(F)c1cnc2c(c1)CN(c1nc(Cl)nc3c1CCC3)CC2` [compound 259, 6-(2-chloro-6,7-dihydro-5H-cyclopenta[d]pyrimidin-4-yl)-3-(trifluoromethyl)-5,6,7,8-tetrahydro-1,6-naphthyridine], the maximal effect (Emax) at 30 µM was found to be 91%. Further, under setting [1], the EC50 was determined as 217 nM.

Regarding `Cc1nc(C)c(C)c(N2CCc3ncc(Oc4ccccc4F)cc3C2)n1` [compound 260, 3-(2-fluorophenoxy)-6-(2,5,6-trimethylpyrimidin-4-yl)-5,6,7,8-tetrahydro-1,6-naphthyridine], the Emax at 30 µM amounted to 87%. The concentration giving a half-maximal response (EC50) under setting [1] worked out at 154 nM.

Consider `Cc1nc(C)c(C)c(N2CCc3ncc(Oc4cccc(F)c4F)cc3C2)n1` [compound 261, 3-(2,3-difluorophenoxy)-6-(2,5,6-trimethylpyrimidin-4-yl)-5,6,7,8-tetrahydro-1,6-naphthyridine], for which the Emax at 30 µM stood at 72%. Besides, the EC50 under setting [1] turned out to be 358 nM.

In the case of `Cc1nc(C)c(C)c(N2CCc3ncc(Oc4ccc(F)cc4F)cc3C2)n1` [compound 262, 3-(2,4-difluorophenoxy)-6-(2,5,6-trimethylpyrimidin-4-yl)-5,6,7,8-tetrahydro-1,6-naphthyridine], the Emax at 30 µM is 77%. Besides, the concentration for a half-maximal effect (EC50) under setting [1] is 275 nM.

Consider `Cc1nc(C)c(C)c(N2CCc3ncc(Oc4cc(F)ccc4F)cc3C2)n1` [compound 263, 3-(2,5-difluorophenoxy)-6-(2,5,6-trimethylpyrimidin-4-yl)-5,6,7,8-tetrahydro-1,6-naphthyridine], for which the maximum response (Emax) at 30 µM was found to be 90%. Besides, the EC50 under setting [1] was 145 nM.

In general, Emax refers to the maximal effect, on the per cent scale that the assay sets. By EC50 is commonly meant the concentration that produces a half-maximal response.

Values taken from patent publication US20250230155A1 (Vanderbilt University, priority 2021, published 2025).
